One data set has as its system mouse colons. Conditions: cited from earlier work.
The conditions of data set [1]: cited from earlier work.
Data set [2] can be described thus: About 9 week (67 day) test in adult mice with butyrate added to food. Conditions: 67 day test period. Type of data set: in vivo. How it is done:
Another test on adult mice was run for about 9 weeks. Butyrate was mixed with chocolate and/or cornstarch and the mixture was added to the mice's food (a commercial guinea pig food—Aytec Supreme Daily Blend Guinea Pig Diet). The butyrate dose started at 11.1 mg per mouse twice a day at the beginning of the study and ended up at 58 mg per mouse twice a day at the end of the study. The non-butyrate-fed mice had the same chocolate and/or cornstarch added to their food in equal weight compared to the butyrate-fed mice. The four butyrate mice gained an average of 50 mg each over the 67 day test period, and the four non-butyrate mice gained an average of 325 mg each over the 67 day test period. While no weight loss occurred in either group the butyrate mice gained less weight, by a ratio of about 6.5 to 1.

A short description of data set [3]: Experimental administration of potassium butyrate capsules as a weight loss agent to two human volunteers. In kind it is in vivo. On the set-up: triglyceride values / total cholesterol / HDL / LDL / triglycerides: unit not given here. How it is done: Based on the inherent safety of butyrate as discussed in medical literature, experimental administration of butyrate was begun on two volunteers. Tests on the two human volunteers has produced weight loss of 17 pounds and 40 pounds respectively at a dosage of 3-5 capsules, once or twice daily (volunteer #1); or 3-5 capsules three times per day (volunteer #2). Each capsule contained approximately 140 mg of potassium butyrate at the start of the test period, and 231 mg each at the end of the test period. The butyrate capsules typically contain 231 to 287 mg of potassium butyrate and 345 to 431 mg of corn starch and 345 to 431 mg of sodium bicarbonate in a 920 to 1 100 mg Size 0 Lilly gelatin capsule. The potassium butyrate is prepared by oxidizing 1-butanol with potassium permanganate in aqueous solution at between 180° F. and 212° F. This reaction produces manganese dioxide and butyric acid and KOH. The manganese dioxide is quite insoluble and is filtered out, and the butyric acid is then neutralized by the potassium hydroxide formed, thus forming the salt, potassium butyrate. The following reactions are thought to produce the potassium butyrate:
The inventor, after having been convinced by the medical literature of the inherent safety of butyrate in humans, began experimental administration of potassium butyrate as a weight loss agent to two volunteers, one of which was […]. The starting dose was 23 mg twice a day, in capsules containing 230 mg of a 10% mixture each. Volunteer #1's starting weight then was 185 lb measured in the morning, fasting. Volunteer #1's height was […] making their body mass index (BMI) […]. Note this is in the range regarded as being overweight (25-30). The dose was increased to 66 mg twice a day a couple of days later, and after 20 days the weight declined to 181 lb. The dose was increased to 130 mg twice a day before meals after about a month. Weight after 2 months was 174 lb. During the 4th through 7th month, the dose averaged 280 mg twice a day on about half the days, skipping it on alternate days. Weight reached its lowest point after about 7 months: 168 lb, BMI 24.5, which is the upper range of normal. After that, the dose has been an average of […] once a day, taken before meals, but only used on alternate days. The weight on this low dose rose to 174 lb and has stayed within 4 lb of that for the last 5 months.
Another test subject, volunteer #2, started on potassium butyrate when weight was 256 lb, height 5′3″, BMI 40. Prior to this use of butyrate, subject's most successful weight losses was 50 lb over a 3 month period while on Optifast program, a 400 calorie a day supplemented fasting program.
The starting dose of butyrate was 40 mg three times a day. It was rapidly escalated to 560 mg before each meal and continued on that dose for about 6 months, when the dose was increased to 800 mg three times a day. Weight after 6 months was 222 lbs. The same dose was continued from that point for another 6 months. Then their weight was 220. Dose was then increased to 1150 mg three times a day for another 8 days. Then their weight was 216 after about a year, for a total of 40 lbs of weight loss during this slightly more than one year duration clinical trial. BMI declined to 35.

Data set [4] can be described thus: 10 week experiment in adolescent common white mice fed K butyrate in chocolate. Type of data set: in vivo. How it is done:
Two mouse experiments involved 8 adolescent common white mice, still in the growth period. Four were assigned to the butyrate group and were fed K butyrate mixed in pieces of chocolate 300-400 mg size twice a day, and the other four mice were assigned to the non-butyrate group and were fed the same size pieces of plain chocolate. Both groups of mice were otherwise cared for in an identical fashion and fed twice as many food pellets as recommended. The dose of butyrate initially chosen was 3.47 mg per dose scaled down from the human dose according to the ratio of body surface area of mouse compared to man. This was estimated at 1:250.

Each structure is given as a SMILES string. Like-named read-outs stand apart in the source and are kept apart here.

With `CCCC(=O)O` [alkaline butyrate ion, reference compound], the colitis entry in the data set with mouse colons (mouse, in vivo) was “did not cause colitis”.

As for `CCCC(=O)O` [butyric acid], in the data set on mouse colons (1% concentration instilled into mouse colons), the colitis entry is “caused colitis”.

`CCCC(=O)[O-].[K+]` [potassium butyrate]: the “half-life in the serum” value in data set [1] was 2 min. Further, the “average weight gain per mouse” value was 50 mg in data set [2] (11.1 to 58 mg per mouse twice a day, non-butyrate mice 325 mg) and 17 grams in data set [4] (adolescent mice, 10 week experiment, 3.47 then 11.5 mg twice a day, non-butyrate mice 18.6 grams). Also, the “ratio of weight gain, non-butyrate to butyrate mice” value in data set [2] (ratio to 1) is listed as “about 6.5”. Further, the adverse effects result in data set [3] (volunteer #1) is reported as “No adverse effects occurred except for occasional transient epigastric aching soon after a dose”. In addition, the “cholesterol and cholesterol ratios” value in data set [3] (volunteer #1) is given as “not changed significantly”. Moreover, in data set [3] (volunteer #1), the “halitosis or foul eructation” value is on record as “No halitosis or foul eructation occurred”. Moreover, the “liver enzymes and liver function tests” value in data set [3] (volunteer #1) is listed as “remained normal”. Further, the weight loss was 17 pounds in data set [3] (volunteer #1, 3-5 capsules once or twice daily) and 40 pounds in data set [3] (volunteer #2, 3-5 capsules three times per day). Further, the weight in data set [3] (volunteer #1, after 2 months, 130 mg twice a day before meals, starting weight 185 lb) is listed as 174 lb; in data set [3] (volunteer #1, after 20 days, 23 then 66 mg twice a day, starting weight 185 lb), 181 lb; in data set [3] (volunteer #1, low dose, average 660 mg once a day on alternate days, stayed within 4 lb for the last 5 months), 174 lb; in data set [3] (volunteer #2, after 6 months, 560 mg before each meal, starting weight 256 lb) it was 222 lbs; in data set [3] (volunteer #2, after about a year, 1150 mg three times a day for another 8 days, starting weight 256 lb), 216 lbs; in data set [3] (volunteer #2, after another 6 months at 800 mg three times a day, starting weight 256 lb) it was 220 lbs. Moreover, the triglyceride values in data set [3] (volunteer #1, after about 6 months, initially 310) was found to be 230. In data set [3] (volunteer #1, after about 7 months, 280 mg twice a day on about half the days, starting weight 185 lb), the “weight, lowest point” value came to 168 lb. The “body mass index (BMI)” value in data set [3] (volunteer #1, after about 7 months, starting BMI 27) is given as 24.5. Further, in data set [3] (volunteer #1, after about 14 months), the “carpal tunnel syndrome symptoms” value is recorded as “improved markedly”. For the same compound, the blood pressure entry in data set [3] (volunteer #1, after about 14 months, hypertension before required 4 mg per day Cardura) is listed as “normal without medication”. In addition, the “blood counts and survey chemistries (SMA-18 or comprehensive chemistry)” value in data set [3] (volunteer #1, checked periodically) was “normal”. Moreover, the HDL cholesterol in data set [3] (volunteer #1, over 4 months, from 48) is given as 47. The total cholesterol in data set [3] (volunteer #1, over 4 months, from 235) is 236; in data set [3] (volunteer #2, dropped from 266) it was 238. Besides, the fatigue entry in data set [3] (volunteer #2) is “lessened”. Also, in data set [3] (volunteer #2), the “feeling of general well being” value is on record as “improved”. The “exercise tolerance on treadmill exercise stress tests” value in data set [3] (volunteer #2, after 1 year's use vs previous test) is recorded as “almost doubled”. Moreover, the “time able to walk on treadmill in stress test” value in data set [3] (volunteer #2, after 1 year's use, previous test 4 minutes) was determined as 7 min. In data set [3] (volunteer #2, after about a year, starting BMI 40), this compound yielded a BMI of 35. Moreover, the “abnormalities on periodic comprehensive chemistry blood tests and blood counts” value in data set [3] (volunteer #2, during butyrate use) is listed as “no abnormalities have appeared”. The HDL in data set [3] (volunteer #2, from 56) came out at 52. The same compound showed an LDL in data set [3] (volunteer #2, from 160) of 150. The triglycerides in data set [3] (volunteer #2, from 269) amounted to 179. The same compound registered a total weight loss in data set [3] (volunteer #2, slightly more than one year) of 40 lbs. Besides, the tolerability entry in data set [4] (adolescent mice, 3.47 mg per dose twice a day) is on record as “well tolerated”. In addition, the “weight gain less than non-butyrate mice” value in data set [4] (adolescent mice, 10 week experiment) is reported as “about 10%”. Further, the “difference in behavior, activity or agility vs non-butyrate group” value in data set [4] (mice) was “no difference”.

(Values after US6613356B1, “Weight loss medication and method” (priority 2000, dated 2003).)
